Laboratory results published in patent US10548898B2, “Quinazoline compounds” (Gilead Sciences, Inc., priority 2014, dated 2020).
Read-outs that look alike come from different tables or passages of the source.

Tests used:
Format in all cases: cell-based
HIV-1 HBX2 (wild type) = experiment: High throughput cytopathic effect assay in MT-4 cells, wild type HIV-1
Excerpt: (§1) Compounds were screened in a miniaturized, high throughput cytopathic effect assay for activity against HIV-1 HBX2 (wild type) and HIV-1 reverse transcriptase mutants K103N and Y181C. In Tables 1 and 2 below. “w.t.” refers to results of the tested compounds run with the wildtype 1 and “w.t, assay 2” refers results of the tested compounds run with the wildtype on the same day as the testing of the compounds with the mutants. Thus, “w.t, assay 2” was run under the same conditions as the testing of the compounds with the mutants and provides a direct comparison with the results from the testing with the mutants.
(§2) Ten-point serial dilutions of compounds with half-log step size were generated in DMSO. AZT ([…]) was used as the positive control and DMSO as the negative control. The Echo acoustic dispenser was used to deliver 200 nL of serially diluted compound into sterile 384 well tissue culture assay plates. Two million MT-4 cells were incubated with each of the 3 viruses at MOI of 0.0005 in separate 1 mL infection tubes for 1 hour at 37° C. The cells were diluted in cell culture medium (RPMI+10% FBS) to 50.000 cells/mL. The infected cells were added to 384 well assay plates containing serially dilute compounds. Assay plates were incubated for 5 days in a humidified incubator set at 37° C. and 5% CO2. To measure the cytopathic effect of HIV, 40 μL Cell TiterGlo was added to each well and the resulting luminescence signal is read with the Envision plate reader (Perkin Elmer). Data were normalized to positive and negative controls in each plate and expressed as % CPE Protection. EC50 values were defined as the compound concentration that caused a 50% decrease in luminescence signal, and were calculated by non-linear regression using Pipeline Pilot software by applying a four parameter fit equation (Accelrys, San Diego, Calif.).

[1] = tested on: HIV-1 reverse transcriptase mutant K103N; experiment: High throughput cytopathic effect assay in MT-4 cells, K103N mutant; conditions: for EC50: Human immunodeficiency virus 1, MT4, 120 h, read-out: MT4 EC50 (nM) against K103N; for FC against mutant K103N: fold change of MT4 EC50 versus w.t. assay 2
Excerpt: as §1, §2

[2] = tested on: HIV-1 reverse transcriptase mutant Y181C; experiment: High throughput cytopathic effect assay in MT-4 cells, Y181C mutant; conditions: for EC50: Human immunodeficiency virus 1, MT4, 120 h, read-out: MT4 EC50 (nM) against Y181C; for FC against mutant Y181C: fold change of MT4 EC50 versus w.t. assay 2
Excerpt: as §1, §2

hERG channels = biological target: T1, hERG channels (Homo sapiens, UniProt Q12809); experiment: hERG assay, whole cell recordings in CHO cell line stably expressing hERG channels; conditions: CHO cells, whole cell patch clamp; greater than values indicate the maximum achievable concentration in the assay
T1 construct: host or cells: CHO cell line stably expressing hERG
Description: AVIVA's CHO cell line, which stably expresses hERG channels, was used for the study. Cells were cultured in DMEM/F12 containing 10% FBS, 1% penicillin/streptomycin and 500 μg/ml G418. Before testing, cells were harvested using Accumax (Innovative Cell Technologies).
External Solution: 2 mM CaCl2; 2 mM MgCl2; 4 mM KCl; 150 mM NaCl; 10 mM Glucose; 10 mM HEPES; 305-315 mOsm; pH 7.4 (adjusted with 5M NaOH.)
Internal Solution: 140 mM KCl; 10 mM MgCl2; 6 mM EGTA; 5 mM HEPES-Na; 5 mM ATP-Mg; 295-305 mOsm; pH 7.25 (adjusted with 1M KOH).
Whole cell recordings were performed using PX 7000A (Axon Instruments) with AVIVA's SealChip™ technology. Cells were voltage clamped at a holding potential of −80 mV. The hERG current was then activated by a depolarizing step to −50 mV for 300 ms. This first step at −50 mV was used as a baseline for measuring peak amplitude of the tail current. Next, a voltage step to +20 mV was applied for 5 s to activate the channels. Finally, a step back to −50 mV for 5 s removed activation and the deactivating tail current was recorded.
All test articles were prepared from 10 mM DMSO stock solutions. Solutions were mixed by sonication for 20 min, followed by vigorous vortexing. Prior to testing, compounds were diluted to test concentrations in glass vials using External Solution. Dilutions were prepared no longer than 20 min prior to use.
After achieving whole cell configuration, cells were monitored for 90 s to assess stability and then washed with External Solution for 66 s. The voltage protocol was then applied to the cells every 12 s throughout the procedure. Only stable cells with recording parameters above threshold were allowed to enter the drug addition procedure.
External solution containing 0.1% DMSO (vehicle) was applied to the cells to establish a baseline. After allowing the current to stabilize for 3 to 10 min, test articles were applied. Test article solutions were added to cells in 4 separate additions. Cells were kept in test solution until effect of the test article reached steady state, to a maximum of 12 min. Next, 1 μM cisapride (positive control) was added. Finally, washout with External Solution was performed until the recovery current reached steady state.
Data analysis was performed using DataXpress (Axon Instruments), Clampfit (Axon Instruments) and Origin (OriginLab Corporation) software. The greater than values in Table 5 indicate the maximum achievable concentration in the assay (e.g., compounds achieving their solubility limit).

[3] = tested on: HIV-1 recombinant strain encoding reverse transcriptase mutation K103N; experiment: Resistance profile against HIV-1 RT mutants in MT-2 cells, K103N; conditions: ratio of mean EC50 mutant/WT virus
Description: (§3) Compounds were tested for antiviral activity against a panel of NNRTI resistant viruses. A panel of 8 clonal site-directed mutant viruses representing the major resistance development pathways against rilpivirine (“RPV”), efavirenz (“EFV”), and nevirapine (“NVP”), containing both single and double mutations within HIV-1 reverse transcriptase was employed. Further details and background can be found in Janssen et al. J. Med. Chem, 2005, 48, 1901-1909; Das et al., Proc. Nat. Acad. Sci., 2008, vol., 105, no. 5, 1466-1471; and Kuroda et al., Nature Chemistry, 2013, DOI: 10.1038/NCHEM. 1559. […] HIV-1 recombinant strains encoding reverse transcriptase mutations K103N, Y181C, Y188L, G190A, K103N/Y181C, L1001/Y181C, E138K or E138KIM 184V were constructed by site-directed mutagenesis. Wild-type and mutant viruses were prepared by transfecting infectious proviral HXB2-based cDNA clones into MT-2 cells and harvesting the cell supernatants. MT-2 cells were infected with wild-type and mutant HIV-1 strains at a multiplicity of infection (MOI) of 0.005 by gentle mixing for 3 hours at 37° C. and then added at a density of 16,667 cells per well in 50 μL complete RPMI cell culture media (containing 10% fetal bovine serum (FBS) and 10% penicillin-streptomycin) to 96-well plates containing 50 μL of a 3-fold serial dilution of test compounds in RPMI medium. After 5 days of incubation at 37° C. in a humidified incubator in the presence of 5% CO2. 100 μL of Cell Titer-Glo™ Reagent (Promega Biosciences, Inc., Madison, Wis.) was added to each well and the relative light units (RLU) measured on an Envision plate reader. […] The EC50 value was defined as the compound concentration inducing a 50% decrease in virus replication. Data analysis for the antiviral activity observed in MT-2 cells was performed using XL-Fit™ software (IDBS, Guildford, Surrey, UK) to calculate EC50 from an 8-point dose-response curve using the following equation:
(§4) [formula] where y=virus inhibition, x=drug concentration, M=maximum inhibition, H=minimum inhibition and n=Hill coefficient, EC50 values (mean±standard deviation) were calculated from at least three independent experiments performed in triplicate. The level of resistance was calculated as a ratio of the mean EC50 for each mutant/WT virus. Results are disclosed in FIG. 1 and in Tables 3 and 4 below.

[4] = tested on: HIV-1 recombinant strain encoding reverse transcriptase mutation Y181C; experiment: Resistance profile against HIV-1 RT mutants in MT-2 cells, Y181C; conditions: ratio of mean EC50 mutant/WT virus
Description: as §3, §4

[5] = tested on: HIV-1 recombinant strain encoding reverse transcriptase mutation L100I/Y181C; experiment: Resistance profile against HIV-1 RT mutants in MT-2 cells, L100I/Y181C; conditions: ratio of mean EC50 mutant/WT virus
Description: as §3, §4

[6] = tested on: HIV-1 recombinant strain encoding reverse transcriptase mutation K103N/Y181C; experiment: Resistance profile against HIV-1 RT mutants in MT-2 cells, K103N/Y181C; conditions: ratio of mean EC50 mutant/WT virus
Description: as §3, §4

[7] = tested on: HIV-1 recombinant strain encoding reverse transcriptase mutation Y188L; experiment: Resistance profile against HIV-1 RT mutants in MT-2 cells, Y188L; conditions: ratio of mean EC50 mutant/WT virus
Description: as §3, §4

[8] = tested on: HIV-1 recombinant strain encoding reverse transcriptase mutation G190A; experiment: Resistance profile against HIV-1 RT mutants in MT-2 cells, G190A; conditions: ratio of mean EC50 mutant/WT virus
Description: as §3, §4

[9] = Human immunodeficiency virus 1, MT4, read-out: MT4 EC50 (nM) against w.t. assay 2
[10] = Human immunodeficiency virus 1, MT4, 120 h, MT-4 cells, 5 days, cytopathic effect, Cell TiterGlo, read-out: MT4 EC50 (nM) against w.t.

T1 sequence (Q12809 whole entry): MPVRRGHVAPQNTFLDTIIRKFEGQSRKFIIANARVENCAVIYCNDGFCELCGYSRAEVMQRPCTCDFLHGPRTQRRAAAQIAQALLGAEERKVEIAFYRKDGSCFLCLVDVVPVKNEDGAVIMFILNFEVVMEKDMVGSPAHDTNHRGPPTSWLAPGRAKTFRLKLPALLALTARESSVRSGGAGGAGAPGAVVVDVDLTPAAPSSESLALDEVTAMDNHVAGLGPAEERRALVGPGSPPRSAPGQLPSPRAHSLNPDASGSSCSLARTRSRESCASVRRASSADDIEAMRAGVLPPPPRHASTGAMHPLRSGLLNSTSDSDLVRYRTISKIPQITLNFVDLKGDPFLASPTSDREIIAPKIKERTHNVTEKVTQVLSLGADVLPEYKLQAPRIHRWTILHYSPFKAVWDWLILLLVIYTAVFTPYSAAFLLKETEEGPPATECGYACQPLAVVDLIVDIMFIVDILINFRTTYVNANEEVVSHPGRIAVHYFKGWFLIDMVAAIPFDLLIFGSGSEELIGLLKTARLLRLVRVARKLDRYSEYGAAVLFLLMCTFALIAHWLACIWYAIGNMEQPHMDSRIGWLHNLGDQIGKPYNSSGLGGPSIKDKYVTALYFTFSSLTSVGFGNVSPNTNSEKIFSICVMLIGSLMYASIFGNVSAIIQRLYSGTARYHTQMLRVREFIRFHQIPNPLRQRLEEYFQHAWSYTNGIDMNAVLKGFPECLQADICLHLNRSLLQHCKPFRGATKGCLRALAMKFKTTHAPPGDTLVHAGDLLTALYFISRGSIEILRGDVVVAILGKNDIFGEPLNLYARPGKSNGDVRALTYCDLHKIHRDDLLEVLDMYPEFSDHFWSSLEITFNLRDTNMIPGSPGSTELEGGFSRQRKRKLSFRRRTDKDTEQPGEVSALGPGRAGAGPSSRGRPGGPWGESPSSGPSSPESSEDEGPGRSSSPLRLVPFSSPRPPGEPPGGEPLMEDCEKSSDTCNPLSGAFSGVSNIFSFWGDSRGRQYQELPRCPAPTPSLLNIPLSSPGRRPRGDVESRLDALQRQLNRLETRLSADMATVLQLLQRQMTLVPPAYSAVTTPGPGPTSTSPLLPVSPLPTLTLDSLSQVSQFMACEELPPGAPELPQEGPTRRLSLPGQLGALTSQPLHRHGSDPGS

Compound	EC50 (HIV-1 HBX2 (wild type); Human immunodeficiency virus 1, MT4, 120 h, read-out: MT4 EC50 (nM) against w.t.) [nM]	EC50 (HIV-1 HBX2 (wild type); [9]) [nM]	EC50 [1] [nM]	FC against mutant K103N [1]	EC50 [2] [nM]	FC against mutant Y181C [2]	hERG (hERG channels) [µM]	EC50 (HIV-1 HBX2 (wild type); [10]) [nM]	Biology resistance panel-low throughput fold change (FC) K103N [3]	Biology resistance panel-low throughput fold change (FC) Y181C [4]	Biology resistance panel-low throughput fold change (FC) L100I/Y181C [5]	Biology resistance panel-low throughput fold change (FC) K103N/Y181C [6]	Biology resistance panel-low throughput fold change (FC) Y188L [7]	Biology resistance panel-low throughput fold change (FC) G190A [8]
Cc1cc(/C=C/C#N)cc(C)c1-c1cccc2c(N)nc(Nc3cnc(C#N)cn3)nc12 [Compound 12, (E)-5-((4-Amino-8-(4-(2-cyanovinyl)-2,6-dimethylphenyl)quinazolin-2-yl)amino)pyrazine-2-carbonitrile]	1.8	1.8	1.7	0.9	12.5	6.9	>3							
Cc1cc(/C=C/C#N)cc(C)c1-c1cccc2cnc(Nc3ccc(C#N)cn3)nc12 [Compound 13, (E)-6-((8-(4-(2-Cyanovinyl)-2,6-dimethylphenyl)quinazolin-2-yl)amino)nicotinonitrile]		4.3	5.9	1.4	27.4	6.4	1.3	3.2						
Cc1cc(/C=C/C#N)cc(C)c1-c1cccc2cnc(Nc3ccc(C#N)cc3)nc12 [Compound 1, (E)-4-((8-(4-(2-Cyanovinyl)-2,6-dimethylphenyl)quinazolin-2-yl)amino)benzonitrile]		6.2	8.8	1.4	17.8	2.9		3	1.3	5.7	6.9	14.8	15.2	0.6
Cc1cc(/C=C/C#N)cc(C)c1-c1cccc2c(N)nc(Nc3ccc(C#N)cn3)nc12 [Compound 10, (E)-6-((4-Amino-8-(4-(2-cyanovinyl)-2,6-dimethylphenyl)quinazolin-2-yl)amino)nicotinonitrile]		3	2.9	1.0	29.3	9.8	>3	2.8	0.9	11.9	3.8	19.9	53.6	
Cc1cc(/C=C/C#N)cc(C)c1-c1cccc2c(N)nc(Nc3ccc(C#N)nc3)nc12 [Compound 9, (E)-5-((4-Amino-8-(4-(2-cyanovinyl)-2,6-dimethylphenyl)quinazolin-2-yl)amino)picolinonitrile]		3.2	3.5	1.1	10.8	3.4	>3	3.4	1.0	5.7	4.0	14.7	11.4	
Cc1ccnc2c1NC(=O)c1cccnc1N2C1CC1 [Nevirapine, reference compound]								65	87.0	>229	>229		>229	183.0
Cc1cc(/C=C/C#N)cc(C)c1-c1cccc2c(N)nc(Nc3ccc(C#N)nn3)nc12 [Compound 11, (E)-6-((4-Amino-8-(4-(2-cyanovinyl)-2,6-dimethylphenyl)quinazolin-2-yl)amino)pyridazine-3-carbonitrile]		4.2	5.2	1.2	126	29.8	>3	4.7	2.1	154.0	85.0	157.0	161.0	
